System: yeast genes (level of expressed mRNA)
Experiment: DNA chip analysis of expressed mRNA of yeast genes after 2 h culture with a toxic chemical substance
Format: cell-based, Saccharomyces cerevisiae S288C
Experimental: Yeast (Saccharomyces cerevtisiae S288C (α SUC2mal mel gap2 CUP1)) were cultured at 25° C. on YPD medium (yeast extract 1%, polypepton 2%, glucose 2%). One of toxic chemical substances was added to the cell at logarithmic growth phase, and the cell was further cultured for two hours. Cell was cultured without any chemical substance in the same condition, and was used as control. Concentrations of the chemical substances were defined to inhibit the growth of the yeast but not lead to death.
After the completion of cultivation, the culture was centrifuged to collect the cells. To the cells, sodium acetate buffer (50 mM sodium acetate, 10 mM EDTA, 1% SDS) was added, and the mixture was shaken at 65° C. for five minutes, followed by returning to room temperature, and obtaining the supernatant, which procedure was repeated two times. To the supernatant, ½ amount of a solution of phenol/chloroform was added, and the mixture was centrifuged to give a supernatant, which was added with an equal amount of chloroform, and the mixture was centrifuged to give a supernatant. To the supernatant, an equal amount of isopropanol containing 0.3 M sodium acetate was added, and the mixture was allowed to stand at room temperature for 30 minutes, after which the mixture was centrifuged to give a sediment of the whole RNAs. Seventy % ethanol was added to the sediment, and the mixture was again centrifuged to give a sediment, which was then dried and dissolved in water. mRNA was isolated from the whole RNAs as followings. In view of the fact that a poly A chain is attached to the 3′ terminus of mRNA, a polynucleotide having a poly T structure which was immobilized on the surface of latex beads was used to trap the mRNA, and then the mRNA was washed and eluted with spine column (Oligotex-dT30<Super>mRNA Purification Kit, Takara). Reverse transcription of the mRNA was conducted with a reverse transcriptase (Super Script II Reverse Transcriptase; catalogue No. 18064-014, GibcoBRL) using fluorescence-labeled nucleotides to give cDNAs that were introduced with Cy3-dUTP or Cy5-dUTP during the reverse transcription.
The labeled cDNAs were dissolved in TE buffer (10 mM Tris-HCl/1 mM EDTA, pH8.0), and the solution was dropped on the DNA chip containing the whole genes of yeast (DNA Chip Research Inc. Japan) so that the cDNAs were hybridized on the DNA chip at 65° C. for over 12 hours. The fluoresces intensity of the DNA chip was read with a scanner, and the ratio relative to the fluorescence intensity resulting from the absence of chemical substance was estimated as the following, which is shown in Tables 1 to 9: [formula]
In the Tables, “Intensity” indicated in the rightmost column is a value of the level of expressed mRNA of each gene in control cells as divided by the average level of the expressions of the whole genes.

## CCCCCCCCCCCCOS(=O)(=O)[O-].[Na+] [(18), sodium lauryl sulfate]
Gene YML041C
  The level of expressed mRNA in the presence of chemical substance/absence: YML041C: 1.3
Gene YML079W
  The level of expressed mRNA in the presence of chemical substance/absence: YML079W: 1.4
Gene YML110C
  level of expressed mRNA in the presence of chemical substance/in its absence: 1.6
Gene YML118W
  The level of expressed mRNA in the presence of chemical substance/absence: YML118W: 1.5
Gene YMR068W
  The level of expressed mRNA in the presence of chemical substance/absence: YMR068W: 1.1
Gene YMR071C
  The level of expressed mRNA in the presence of chemical substance/absence: YMR071C: 1.9
Gene YMR105C
  level of expressed mRNA in the presence of chemical substance/in its absence: 2.6
Gene YMR114C
  The level of expressed mRNA in the presence of chemical substance/absence: YMR114C: 1.3
Gene YMR115W
  The level of expressed mRNA in the presence of chemical substance/absence: YMR115W: 1.2
Gene YMR160W
  The level of expressed mRNA in the presence of chemical substance/absence: YMR160W: 1.3
Gene YMR189W
  level of expressed mRNA in the presence of chemical substance/in its absence: 0.8
Gene YMR258C
  The level of expressed mRNA in the presence of chemical substance/absence: YMR258C: 1.3
Gene YMR271C
  level of expressed mRNA in the presence of chemical substance/in its absence: 2.2
Gene YMR272C
  level of expressed mRNA in the presence of chemical substance/in its absence: 1.4
Gene YMR296C
  level of expressed mRNA in the presence of chemical substance/in its absence: 0.7
Gene YNL012W
  level of expressed mRNA in the presence of chemical substance/in its absence: 1.5
Gene YNL026W
  The level of expressed mRNA in the presence of chemical substance/absence: YNL026W: 1.4
Gene YNL037C
  level of expressed mRNA in the presence of chemical substance/in its absence: 1.3
Gene YNL045W
  level of expressed mRNA in the presence of chemical substance/in its absence: 1.1
Gene YNL058C
  The level of expressed mRNA in the presence of chemical substance/absence: YNL058C: 1.0
Gene YNL063W
  The level of expressed mRNA in the presence of chemical substance/absence: YNL063W: 1.0
Gene YNL104C
  level of expressed mRNA in the presence of chemical substance/in its absence: 0.9
Gene YNL106C
  level of expressed mRNA in the presence of chemical substance/in its absence: 0.9
Gene YNL130C
  level of expressed mRNA in the presence of chemical substance/in its absence: 1.2
Gene YNL169C
  level of expressed mRNA in the presence of chemical substance/in its absence: 1.3
Gene YNL176C
  The level of expressed mRNA in the presence of chemical substance/absence: YNL176C: 0.8
Gene YNL181W
  The level of expressed mRNA in the presence of chemical substance/absence: YNL181W: 1.3
Gene YNL191W
  The level of expressed mRNA in the presence of chemical substance/absence: YNL191W: 0.6
Gene YNL194C
  The level of expressed mRNA in the presence of chemical substance/absence: YNL194C: 2.4
Gene YNL200C
  The level of expressed mRNA in the presence of chemical substance/absence: YNL200C: 0.9
Gene YNL212W
  The level of expressed mRNA in the presence of chemical substance/absence: YNL212W: 1.2
Gene YNL231C
  level of expressed mRNA in the presence of chemical substance/in its absence: 4.0
Gene YNL253W
  The level of expressed mRNA in the presence of chemical substance/absence: YNL253W: 1.2
Gene YNL265C
  The level of expressed mRNA in the presence of chemical substance/absence: YNL265C: 1.8
Gene YNL276C
  The level of expressed mRNA in the presence of chemical substance/absence: YNL276C: 0.8
Gene YNL322C
  level of expressed mRNA in the presence of chemical substance/in its absence: 1.0
Gene YNR002C
  level of expressed mRNA in the presence of chemical substance/in its absence: 2.1
Gene YNR019W
  level of expressed mRNA in the presence of chemical substance/in its absence: 2.0
Gene YNR033W
  level of expressed mRNA in the presence of chemical substance/in its absence: 1.1
Gene YNR051C
  The level of expressed mRNA in the presence of chemical substance/absence: YNR051C: 0.8
Gene YNR059W
  level of expressed mRNA in the presence of chemical substance/in its absence: 2.2
Gene YOL026C
  The level of expressed mRNA in the presence of chemical substance/absence: YOL026C: 1.4
Gene YOL030W
  The level of expressed mRNA in the presence of chemical substance/absence: YOL030W: 1.0
Gene YOL058W
  level of expressed mRNA in the presence of chemical substance/in its absence: 0.8
Gene YOL126C
  level of expressed mRNA in the presence of chemical substance/in its absence: 2.4
Gene YOL143C
  level of expressed mRNA in the presence of chemical substance/in its absence: 1.4
Gene YOL153C
  level of expressed mRNA in the presence of chemical substance/in its absence: 1.7
Gene YOL157C
  level of expressed mRNA in the presence of chemical substance/in its absence: 1.3
Gene YOR022C
  The level of expressed mRNA in the presence of chemical substance/absence: YOR022C: 1.1
Gene YOR087W
  The level of expressed mRNA in the presence of chemical substance/absence: YOR087W: 1.1
Gene YOR088W
  The level of expressed mRNA in the presence of chemical substance/absence: YOR088W: 0.7
Gene YOR099W
  level of expressed mRNA in the presence of chemical substance/in its absence: 2.3
Gene YOR130C
  level of expressed mRNA in the presence of chemical substance/in its absence: 1.1
Gene YOR136W
  level of expressed mRNA in the presence of chemical substance/in its absence: 1.3
Gene YOR138C
  The level of expressed mRNA in the presence of chemical substance/absence: YOR138C: 1.1
Gene YOR155C
  The level of expressed mRNA in the presence of chemical substance/absence: YOR155C: 0.9
Gene YOR253W
  The level of expressed mRNA in the presence of chemical substance/absence: YOR253W: 0.9
